Measured values as given in ChEMBL document CHEMBL1201861, “Genomics of Drug Sensitity in Cancer screening data, Wellcome Trust Sanger Institute”.

How the values were obtained:
Experiment in all cases: cells
[1] = tested on: DoTc2-4510; type: functional, cell-based, Homo sapiens; details: Homo sapiens, DoTc2-4510
[2] = tested on: A498; type: functional, cell-based, Homo sapiens; details: Homo sapiens, A498;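 also: growth inhibition of human A498 cells, read out with a cell viability assay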
Description: SANGER: Inhibition of human A498 cell growth in a cell viability assay.

[3] = tested on: HOS; type: functional, cell-based, Homo sapiens; details: Homo sapiens, HOS;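 also: growth inhibition of human HOS cells, read out with a cell viability assay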
Description: SANGER: Inhibition of human HOS cell growth in a cell viability assay.

[4] = tested on: SW948; type: functional, cell-based, Homo sapiens; details: Homo sapiens, SW948;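 also: growth inhibition of SW948 cells, read out with a cell viability assay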
Description: SANGER: Inhibition of human SW948 cell growth in a cell viability assay.

[5] = tested on: ES1; type: functional, cell-based, Homo sapiens; details: Homo sapiens, ES1;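 also: growth inhibition of ES1 cells, read out with a cell viability assay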
Description: SANGER: Inhibition of human ES1 cell growth in a cell viability assay.

[6] = tested on: GCIY; type: functional, cell-based, Homo sapiens; details: Homo sapiens, GCIY;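 also: growth inhibition of the human GCIY cell line, read out by a cell viability assay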
Description: SANGER: Inhibition of human GCIY cell growth in a cell viability assay.

[7] = tested on: ASPC1; type: functional, cell-based, Homo sapiens; details: Homo sapiens, ASPC1;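 also: growth inhibition of AsPC-1 cells, read out with a cell viability assay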
Description: SANGER: Inhibition of human AsPC-1 cell growth in a cell viability assay.

[8] = tested on: NB14; type: functional, cell-based; details: Homo sapiens;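 also: growth inhibition of NB14 cells measured with a cell viability assay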
Description: SANGER: Inhibition of human NB14 cell growth in a cell viability assay.

[9] = tested on: NCI-H1648; type: functional, cell-based, Homo sapiens; details: Homo sapiens, NCI-H1648;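 also: cell viability assay measuring inhibition of NCI-H1648 cell growth, from the Sanger screening data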
Description: SANGER: Inhibition of human NCI-H1648 cell growth in a cell viability assay.

[10] = tested on: Calu-6; type: functional, cell-based, Homo sapiens; details: Homo sapiens, Calu-6;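 also: growth of human Calu-6 cells, read out by a cell viability assay, IC50 marking inhibition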
Description: SANGER: Inhibition of human Calu-6 cell growth in a cell viability assay.

[11] = tested on: LU-134-A; type: functional, cell-based; details: Homo sapiens
Description: SANGER: Inhibition of human LU-134-A cell growth in a cell viability assay.

[12] = tested on: NCI-H2405; type: functional, cell-based, Homo sapiens; details: Homo sapiens, NCI-H2405;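 also: growth inhibition of the human cell line, read out with a cell viability assay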
Description: SANGER: Inhibition of human NCI-H2405 cell growth in a cell viability assay.

[13] = tested on: A2058; type: functional, cell-based; details: Homo sapiens;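 also: reduction of A2058 cell growth, read out with a viability assay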
Description: SANGER: Inhibition of human A2058 cell growth in a cell viability assay.

[14] = tested on: HCE-4; type: functional, cell-based, Homo sapiens; details: Homo sapiens, HCE-4;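 also: cell viability assay measuring inhibition of growth in the human HCE-4 cell line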
Description: SANGER: Inhibition of human HCE-4 cell growth in a cell viability assay.

[15] = tested on: NKM-1; type: functional, cell-based; details: Homo sapiens;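 also: growth inhibition of NKM-1 cells, read out with a cell viability assay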
Description: SANGER: Inhibition of human NKM-1 cell growth in a cell viability assay.

[16] = tested on: T98G; type: functional, cell-based, Homo sapiens; details: Homo sapiens, T98G;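 also: growth inhibition of T98G cells, read out by a cell viability assay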
Description: SANGER: Inhibition of human T98G cell growth in a cell viability assay.

[17] = tested on: A253 cell line; type: functional, cell-based, Homo sapiens; details: Homo sapiens, A253;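 also: growth inhibition of A253 cells, read out with a cell viability assay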
Description: SANGER: Inhibition of human A253 cell growth in a cell viability assay.

[18] = tested on: COLO-680N; type: functional, cell-based, Homo sapiens; details: Homo sapiens, COLO-680N;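 also: cell viability assay used to measure inhibition of COLO-680N cell growth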
Description: SANGER: Inhibition of human COLO-680N cell growth in a cell viability assay.

[19] = tested on: NCI-H810; type: functional, cell-based, Homo sapiens; details: Homo sapiens, NCI-H810;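 also: IC50 reflects inhibition of cancer cell line growth, read out with a cell viability assay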
Description: SANGER: Inhibition of human NCI-H810 cell growth in a cell viability assay.

[20] = tested on: KY821; type: functional, cell-based; details: Homo sapiens;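 also: growth inhibition of human KY821 cells, read out by a cell viability assay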
Description: SANGER: Inhibition of human KY821 cell growth in a cell viability assay.

[21] = tested on: ML-2; type: functional, cell-based; details: Homo sapiens;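 also: growth inhibition of ML-2 cells, measured with a cell viability readout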
Description: SANGER: Inhibition of human ML-2 cell growth in a cell viability assay.

[22] = tested on: NCI-H441; type: functional, cell-based; details: Homo sapiens;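 also: growth inhibition of NCI-H441 cells, read out with a cell viability assay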
Description: SANGER: Inhibition of human NCI-H441 cell growth in a cell viability assay.

[23] = tested on: LU-99A; type: functional, cell-based, Homo sapiens; details: Homo sapiens, LU-99A;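 also: growth inhibition of LU-99A cells, read out with a cell viability assay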
Description: SANGER: Inhibition of human LU-99A cell growth in a cell viability assay.

[24] = tested on: NCI-H2452; type: functional, cell-based, Homo sapiens; details: Homo sapiens, NCI-H2452;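 also: growth inhibition of NCI-H2452 cells, read out with a cell viability assay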
Description: SANGER: Inhibition of human NCI-H2452 cell growth in a cell viability assay.

[25] = tested on: AU565; type: functional, cell-based, Homo sapiens; details: Homo sapiens, AU565;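 also: cell viability assay measuring growth inhibition of human AU565 cells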
Description: SANGER: Inhibition of human AU565 cell growth in a cell viability assay.

[26] = tested on: CAL-12T; type: functional, cell-based, Homo sapiens; details: Homo sapiens, CAL-12T;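 also: growth inhibition of human CAL-12T cells, read out with a cell viability assay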
Description: SANGER: Inhibition of human CAL-12T cell growth in a cell viability assay.

[27] = tested on: NCI-H596; type: functional, cell-based, Homo sapiens; details: Homo sapiens, NCI-H596;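 also: growth inhibition of NCI-H596 cells, read out with a cell viability assay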
Description: SANGER: Inhibition of human NCI-H596 cell growth in a cell viability assay.

[28] = tested on: YAPC; type: functional, cell-based, Homo sapiens; details: Homo sapiens, YAPC;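 also: growth inhibition of YAPC cells, measured with a cell viability assay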
Description: SANGER: Inhibition of human YAPC cell growth in a cell viability assay.

[29] = tested on: NCI-H2170; type: functional, cell-based, Homo sapiens; details: Homo sapiens, NCI-H2170;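 also: cell viability assay measuring growth inhibition of human NCI-H2170 cancer cells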
Description: SANGER: Inhibition of human NCI-H2170 cell growth in a cell viability assay.

[30] = tested on: OCUB-M; type: functional, cell-based, Homo sapiens; details: Homo sapiens, OCUB-M;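 also: growth inhibition of the cancer cell line, read out through a cell viability assay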
Description: SANGER: Inhibition of human OCUB-M cell growth in a cell viability assay.

[31] = tested on: 647-V; type: functional, cell-based, Homo sapiens; details: Homo sapiens, 647-V;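 also: growth inhibition of 647-V cells, read out with a cell viability assay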
Description: SANGER: Inhibition of human 647-V cell growth in a cell viability assay.

[32] = tested on: HGC-27; type: functional, cell-based, Homo sapiens; details: Homo sapiens, HGC-27;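 also: growth inhibition of human HGC-27 cells, read out in a cell viability assay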
Description: SANGER: Inhibition of human HGC-27 cell growth in a cell viability assay.

[33] = tested on: ES8; type: functional, cell-based, Homo sapiens; details: Homo sapiens, ES8;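 also: growth inhibition of human ES8 cells, read out with a cell viability assay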
Description: SANGER: Inhibition of human ES8 cell growth in a cell viability assay.

[34] = tested on: YKG-1; type: functional, cell-based, Homo sapiens; details: Homo sapiens, YKG-1;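 also: cell growth inhibition, read out with a viability assay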
Description: SANGER: Inhibition of human YKG-1 cell growth in a cell viability assay.

[35] = tested on: J-RT3-T3-5; type: functional, cell-based; details: Homo sapiens;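 also: cell viability assay measuring growth inhibition of human J-RT3-T3-5 cells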
Description: SANGER: Inhibition of human J-RT3-T3-5 cell growth in a cell viability assay.

[36] = tested on: G-401; type: functional, cell-based, Homo sapiens; details: Homo sapiens, G-401
Description: SANGER: Inhibition of human G-401 cell growth in a cell viability assay.

[37] = tested on: IGROV-1; type: functional, cell-based, Homo sapiens; details: Homo sapiens, IGROV-1;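 also: reduction of IGROV-1 cell growth, read out with a viability assay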
Description: SANGER: Inhibition of human IGROV-1 cell growth in a cell viability assay.

[38] = tested on: A673; type: functional, cell-based, Homo sapiens; details: Homo sapiens, A673;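 also: growth inhibition of human A673 cells, read out through a cell viability assay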
Description: SANGER: Inhibition of human A673 cell growth in a cell viability assay.

[39] = tested on: RT-112; type: functional, cell-based, Homo sapiens; details: Homo sapiens, RT-112
Description: SANGER: Inhibition of human RT-112 cell growth in a cell viability assay.

[40] = tested on: 769-P; type: functional, cell-based, Homo sapiens; details: Homo sapiens, 769-P
Description: SANGER: Inhibition of human 769-P cell growth in a cell viability assay.

[41] = tested on: PFSK-1; type: functional, cell-based, Homo sapiens; details: Homo sapiens, PFSK-1;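 also: cell viability assay measuring how strongly compounds suppress growth of human PFSK-1 cells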
Description: SANGER: Inhibition of human PFSK-1 cell growth in a cell viability assay.

[42] = tested on: HSC-2; type: functional, cell-based, Homo sapiens; details: Homo sapiens, HSC-2;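 also: growth inhibition of human HSC-2 cells, read out by a cell viability assay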
Description: SANGER: Inhibition of human HSC-2 cell growth in a cell viability assay.

[43] = tested on: RS4-11; type: functional, cell-based; details: Homo sapiens;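 also: growth inhibition of RS4-11 cells, read out by a cell viability assay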
Description: SANGER: Inhibition of human RS4-11 cell growth in a cell viability assay.

[44] = tested on: MKN-7; type: functional, cell-based, Homo sapiens; details: Homo sapiens, MKN-7;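 also: growth inhibition of MKN-7 cells, read out with a cell viability assay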
Description: SANGER: Inhibition of human MKN7 cell growth in a cell viability assay.

[45] = tested on: LB373-MEL-D; type: functional, cell-based, Homo sapiens; details: Homo sapiens, LB373-MEL-D;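 also: growth inhibition of the cell line, read out in a cell viability assay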
Description: SANGER: Inhibition of human LB373-MEL-D cell growth in a cell viability assay.

[46] = tested on: HCC1187; type: functional, cell-based, Homo sapiens; details: Homo sapiens, HCC1187;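 also: growth inhibition of HCC1187 cells, read out with a cell viability assay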
Description: SANGER: Inhibition of human HCC1187 cell growth in a cell viability assay.

[47] = tested on: A704; type: functional, cell-based, Homo sapiens; details: Homo sapiens, A704;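 also: growth inhibition of human A704 cells, read out with a cell viability assay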
Description: SANGER: Inhibition of human A704 cell growth in a cell viability assay.

[48] = tested on: OAW-42; type: functional, cell-based, Homo sapiens; details: Homo sapiens, OAW-42;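 also: growth inhibition of OAW-42 cells, read out with a cell viability assay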
Description: SANGER: Inhibition of human OAW-42 cell growth in a cell viability assay.

[49] = tested on: NCI-H1770; type: functional, cell-based; details: Homo sapiens;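 also: growth inhibition of NCI-H1770 cells determined with a viability readout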
Description: SANGER: Inhibition of human NCI-H1770 cell growth in a cell viability assay.

[50] = tested on: MG-63; type: functional, cell-based, Homo sapiens; details: Homo sapiens, MG-63;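 also: growth inhibition of human MG-63 cells, read out with a cell viability assay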
Description: SANGER: Inhibition of human MG-63 cell growth in a cell viability assay.

[51] = tested on: NCI-H2052; type: functional, cell-based, Homo sapiens; details: Homo sapiens, NCI-H2052;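 also: growth inhibition of NCI-H2052 cells, read out with a cell viability assay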
Description: SANGER: Inhibition of human NCI-H2052 cell growth in a cell viability assay.

Measured: IC50

CCOc1nc(NC(=O)Cc2cc(OC)ccc2OC)cc(N)c1C#N
> 10 µM: all assays above

CC(=O)O[C@@H]1[C@@H](OC(C)=O)[C@@H](O)[C@H](Oc2c(-c3ccc(O)cc3)oc3cc(O)cc(O)c3c2=O)O[C@H]1C
> 10 µM: all assays above
